Reference: patent publication US20020018748A1, “Method for targeted radiotherapy, pain palliation and imaging of osteoblastic skeletal tumors and composition therefore” (priority 2000, published 2002)
Values joined by “and” are separate entries in the source; they are usually repeats but may differ in a detail not shown here. Equal entries are not always repeated.

Experiments:
[1] = test system: bone metastases from prostate cancer; experiment: Fractional uptake of a tracer dose of ^85Sr chloride by bone metastases, measured with gamma camera / external counting; format: in vivo, patient
Description: To calculate the activity (mCi or MBq) of the dose of a carrier-free salt of ^89Sr, preferably chloride, to be administered to palliate painful metastases in a patient, 1 mCi (37 MBq) of ^85Sr chloride with standard specific activity [120 μCi (4.44 MBq)/mg of strontium) is injected into the patient and radioactivity in each metastasis is measured 24 hours after injection. The fractional uptake in each metastasis (relative osteoblastic activity) is calculated by expressing the radioactivity measured in each metastasis as a percent of the administered dose. The sum of the fractional uptake in all metastases is taken as the “metastatic burden” of the patient.
Measurements of radioactivity can be guided by a recent bone scan with ^99Tc^m-MDP (methylene diphosphonate). These measurements can be made by external point counting with a collimated scintillation detector, or by using a gamma camera. […]
The gamma camera needs to be equipped with a high-energy collimator. Anterior and posterior images of the lesions are recorded for 15 minutes. […]
The count rate in each metastasis is calculated by the square root of the product of the count rates in the anterior (A) and posterior (P) images divided by e^−μd: [(cps A) ×(cps P)/(e^−μd)]. The exponential term accounts for the attenuation of the gamma photons by the patient's tissues, where μ is the attenuation coefficient for the gamma rays of ^85Sr, previously measured in a water phantom, and d is the patent thickness measured in cm from x-ray images. The attenuation coefficient needs to be experimentally estimated only once; sensitivity should be measured using an ^85Sr source in a soft-tissue phantom before each imaging session because it varies with time. […]
The sum of the fractional uptake of ^85Sr chloride by all detectable metastases (“metastatic burden”), is used to define the activity (mCi or MBq) of ^89Sr chloride needed to palliate painful metastases in a patient. […] The fractional uptake measured in these metastases was 3%, 4%, 7%, 10%, and 17% of the dose respectively, with a total “metastatic burden” of 41% (3+4+7+10+17=41) (Table II). […]

bone metastases = experiment: Theoretical (calculated) distribution of ^89Sr chloride doses in the metastases, from the ^85Sr chloride uptake; format: in vivo, patient; settings: for total amount of strontium incorporated by all metastases: 4 mCi dose
Description: The fractional uptake (%) of a standard dose ^89Sr chloride for pain palliation in bone metastasis [4 mCi (148 MBq)] with specific activity of 120 μCi (4.44 MBq)/mg of strontium) (B) is calculated from the fractional uptake (%) of 1 mCi of ^85Sr chloride at the same specific activity (A) is illustrated in Table II.
The fractional uptake (%) of a standard dose of 4.0 mCi (148 MBq) of ^89Sr chloride at the standard specific activity is calculated for each metastasis from the results obtained with ^85Sr chloride. Since the specific activity is the same for both radionuclides, the fractional uptake would be similar if the same physiological conditions are maintained. However, the activity (μCi) and the amount of strontium (mg) incorporated by the metastases would be increased by four times because the activity of the administered dose is increased from 1 mCi to 4 mCi. Theoretically, the fractional uptake of a standard dose of ^89Sr chloride by the metastatic burden would be 41.0% of the dose (1.64 mCi or 60.7 MBq), leaving in blood a remaining fraction of 59% of the dose (2.36 mCi or 87.3 MBq) available for renal excretion and for incorporation by normal bone.
The absolute amount of strontium (mg) incorporated by each lesion can be calculated by multiplying the activity of the administered dose (mCi or MBq) by the fractional uptake by a given metastasis (% of the dose), and dividing the result by the specific activity of the dose (mCi or MBq/mg of strontium):
Strontium (mg)=Activity of the dose (mCi) × fractional uptake (%)/specific activity (mCi/mg Sr)
In Table II it is also appreciated that the fractional uptake is the same for both the activity (μCi) and the absolute amount (mg) of strontium incorporated by the metastases. One mg of strontium corresponds to 3% of the element in the dose. One hundred and twenty μCi of ^89Sr correspond to […] of the activity in the dose. One mCi of strontium chloride with specific activity of 120 μCi/mg of strontium contains 8.333 mg of strontium (Table I), therefore, 4 mCi would contain 33.333 mg of the element. A fractional uptake of 41.0% corresponds to 410 μCi and 3.416 mg when using 1 mCi, and to 1.64 mCi and 13.667 mg when the dose is increased to 4 mCi (Table II). The amount of strontium (mg) taken up by the metastasis per unit time should be constant if the physiological parameters are maintained. Dose calculation may be guided by the relationship of the amount of strontium in carrier-free ^89Sr chloride ([…]) and that which is in an equal amount of its low specific activity counterpart (120 μCi/mg of Sr). The amount of strontium in 4 mCi of low specific activity ^89Sr chloride (120 μCi/mg of Sr), is 33.333 mg, while in carrier-free ^89Sr chloride (17 Ci/mg of Sr) it is reduced to 235.2 ng. The relationship between these quantities would be:
Theoretical distribution of ^89Sr chloride at different specific activities assuming the same fractional uptake (% of the dose) by the metastases. (A) ^89Sr chloride with low specific activity [120 μCi (4.44 MBq)/mg of strontium]; (B) carrier-free ^89Sr chloride [17 Ci (629 GBq)/mg of strontium] is illustrated in Table III.
If the “metastatic burden” takes up 41% of a 4mCi dose of the low specific activity ^89Sr chloride (13.664 mg of strontium) (Tables II and III), it is evident that the very small amount of strontium in the carrier-free ^89Sr chloride dose (235.2 ng) would be totally incorporated by the metastases, resulting in a fractional uptake of 100% y the metastatic burden. To correct for this effect, the data in Table IlI should be multiplied by the ratio between 100% uptake and the fractional uptake by the metastatic burden by using 89Sr chloride at the lower specific activity. In this case, the ratio is 100%/41%=2.439. […]

[2] = intravenous single injection; reduced by slow administration over at least two minutes; cited from earlier work
bone marrow = settings: repeat doses at 3-month intervals; cited from earlier work
metastases = settings: in vivo; cited from earlier work
[3] = test system: metastatic lesions in bone; experiment: Absorbed radiation dose estimates by direct measurements of radioactivity in bone metastases; format: in vivo; settings: after 4 mCi (148 MBq), 120 μCi/mg of strontium
Source text: Absorbed radiation dose estimates for metastatic lesions in bone, obtained by direct measurements of radioactivity in bone metastases after the administration of 4 mCi (148 MBq) of ^89Sr chloride at standard specific activity (120 μCi [4.44 MBq]/mg of strontium), varied from 1.3 to 64 Gy, with a mean of 18±16 Gy. The average total absorbed dose in normal bone sites was 1.1±0.4 Gy. The metastases (target) to normal bone (non-target) dose ratio in individual samples varied from 8±4 to 40±25. If compared to absorbed radiation dose provided by external beam radiotherapy, the absorbed radiation dose delivered by ^89Sr chloride should be large enough to produce a therapeutic effect on the metastases. But absorbed radiation doses delivered by ^89Sr chloride may not be compared with those delivered by external beam radiotherapy because the different dose rates used in each methodology. External beam radiotherapy delivers very high dose rates in a very short time, while ^89Sr chloride provides very low dose rates during a long period. These differences reduce the biological effect of a given dose of ^89Sr because there is repair of sublethal damage.

painful bone metastases = settings: cited from earlier work
[4] = carrier-free, 1.64 mCi dose, theoretical
[5] = standard dose 4 mCi (148 MBq), 120 μCi/mg of strontium, theoretical
[6] = standard dose 4 mCi, 120 μCi/mg of strontium, theoretical

[85Sr+2].[Cl-].[Cl-] [^85Sr Chloride (120 μCi/mg Sr), ^85Sr chloride]
Uptake (%) ([1]; 1 mCi dose, 120 μCi/mg Sr, 24 hours after injection, r8-r12 = metastasis 1-5, r13 = Total, one patient): 7.0% and 10.0% and 17.0% and 41.0% and 3.0% and 4.0% | fractional uptake measured in these metastases ([1]; 1 mCi, 120 μCi/mg of strontium, five metastases of one patient with prostate cancer, values respectively): 3 % of the dose and 4 % of the dose and 7 % of the dose and 10 % of the dose and 17 % of the dose | total "metastatic burden" (sum of fractional uptake in all metastases) ([1]; 1 mCi, 120 μCi/mg of strontium, one patient, five metastases): 41%

[89Sr+2].[Cl-].[Cl-] [^89Sr Chloride (17 Ci/mg Sr), ^89Sr chloride]
fractional uptake by the metastases relative to the same activity at standard specific activity (bone metastases; 4 mCi (148 MBq) carrier-free vs 120 μCi/mg, ratio 100%/41%): 2.439 times | activity incorporated by individual metastases (bone metastases; carrier-free, 1.64 mCi (60.68 MBq) dose, metastasis No. 4, No. 5, No. 1, No. 2, No. 3, respectively, listed as carrier-free ^89Sr chloride): 400 μCi and 680 μCi and 120 μCi and 160 μCi and 280 μCi | ratio metastases to normal bone, theoretical values (bone metastases; carrier-free, 1.64 mCi dose, measured ratio multiplied by 2.439): 20-98 | absolute amount of strontium taken up by the metastases (bone metastases; [4]): 96.422 ng | fractional uptake by the metastatic burden (bone metastases; [4]): 100% | fractional uptake by the metastatic burden (bone metastases; carrier-free, 4 mCi dose (235.2 ng strontium), theoretical): 100% | activity received by individual metastases (bone metastases; carrier-free, 4.1 mCi dose, metastasis 1-5 respectively, listed as carrier-free ^89Sr chloride): 300 μCi and 400 μCi and 700 μCi and 1,000 μCi and 1,700 μCi | mean absorbed radiation dose to the metastases (bone metastases; carrier-free, 5.466 mCi (202.2 MBq) dose, calculated): 60 Gy

[89Sr+2].[Cl-].[Cl-] [^89Sr Chloride (120 μCi/mg Sr), ^89Sr chloride]
effect during the injection [2]: facial flushing during the injection | toxicity of additional injections (bone marrow): no major toxicity | ratio of the uptake by metastases as compared to the uptake in normal bones (metastases): higher than 10 to 1 | absorbed radiation dose for metastatic lesions in bone, mean [3]: 18±16 Gy | average total absorbed dose in normal bone sites [3]: 1.1±0.4 Gy | metastases (target) to normal bone (non-target) dose ratio in individual samples [3]: 8-40 | duration of response, mean (painful bone metastases; after ^89Sr administration): 6 months | overall effective pain palliation (painful bone metastases; survey in the United States in 1995, patients treated with bone-seeking radionuclides): 81% | patients achieving a complete remission of pain (painful bone metastases; survey in the United States in 1995): 15% | total amount of strontium incorporated by all metastases (bone metastases; 120 μCi/mg of strontium, theoretical): 13.664 mg | total amount of strontium incorporated by all metastases (bone metastases; 120 μCi/mg of strontium, theoretical, listed as low specific activity ^89Sr chloride): 13.664 mg | total amount of strontium incorporated by all metastases (bone metastases; 120 μCi/mg of strontium, theoretical, listed as low specific activity ^89Sr chloride (120 μCi/mg of Sr)): 13.667 mg | mean fractional uptake (bone metastases; over the five metastases of Table II): 8.2% | activity taken up by the metastatic burden (bone metastases; [5]): 1.64 mCi | fractional uptake by the metastatic burden (bone metastases; [5]): 41 % of the dose | fractional uptake by the metastatic burden (bone metastases; standard dose 4 mCi (148 MBq), 120 μCi/mg of strontium, theoretical, listed as low specific activity ^89Sr chloride): 41 % of the dose | activity remaining in blood, available for renal excretion and incorporation by normal bone (bone metastases; [6]): 2.36 mCi | fraction remaining in blood, available for renal excretion and incorporation by normal bone (bone metastases; [6]): 59 % of the dose
